Test: TIMS collisional cross section (CCS, N2) of the lipid ion; higher = larger ion cross section
Conditions: ionization mode: positive, one isomer drawn

SMILES	TIMS collisional cross section (sample type: HeLa) [Å²]	TIMS collisional cross section (sample type: Liver) [Å²]	TIMS collisional cross section (sample type: plasma) [Å²]
CCCCCC/C=C\CCCCCCCC(=O)OC[C@H](COP(=O)([O-])OCC[N+](C)(C)C)OC(=O)CCCCCCC/C=C\CCCCCCC [PC 16:1_17:1] (ion (formula + adduct): [C41H78NO8P+H] 1+)	281.9		
CCCCCCCC/C=C\CCCCCCCC(=O)O[C@H](COC(=O)/C=C\CCCCCCCCCCCCC)COP(=O)([O-])OCC[N+](C)(C)C [PC 16:1_18:1] (ion (formula + adduct): [C42H80NO8P+H] 1+)	286.6		
CCCCC/C=C\C/C=C\CCCCCCCC(=O)O[C@H](COC(=O)CCCCCCC/C=C\CCCCCC)COP(=O)([O-])OCC[N+](C)(C)C [PC 16:1_18:2@] (ion (formula + adduct): [C42H78NO8P+H] 1+)	281		
CCCCC/C=C\C/C=C\CCCCCCCC(=O)O[C@H](COC(=O)CCCCCCC/C=C\CCCCCC)COP(=O)([O-])OCC[N+](C)(C)C [PC 16:1_18:2] (ion (formula + adduct): [C42H78NO8P+H] 1+)	282.6	282.8	282.6
CCCCCCCC/C=C\CCCCCCCC(=O)O[C@H](COC(=O)CCCCCCCCCCCCCCCC)COP(=O)([O-])OCC[N+](C)(C)C [PC 17:0@_18:1] (ion (formula + adduct): [C43H84NO8P+H] 1+)	291.8		
CCCCC/C=C\C/C=C\CCCCCCCC(=O)O[C@H](COC(=O)CCCCCCCCCCCCCCCC)COP(=O)([O-])OCC[N+](C)(C)C [PC 17:0@_18:2] (ion (formula + adduct): [C43H82NO8P+H] 1+)		288.1	
CCCCC/C=C\C/C=C\C/C=C\C/C=C\CCCC(=O)O[C@H](COC(=O)CCCCCCCCCCCCCCCC)COP(=O)([O-])OCC[N+](C)(C)C [PC 17:0@_20:4] (ion (formula + adduct): [C45H82NO8P+H] 1+)			292.4
CCCCC/C=C\C/C=C\CCCCCCCC(=O)O[C@H](COC(=O)CCCCCCCCCCCCCCCC)COP(=O)([O-])OCC[N+](C)(C)C [PC 17:0_18:2] (ion (formula + adduct): [C43H82NO8P+H] 1+)		288.1	
CCCCC/C=C\C/C=C\C/C=C\C/C=C\CCCC(=O)O[C@H](COC(=O)CCCCCCCCCCCCCCCC)COP(=O)([O-])OCC[N+](C)(C)C [PC 17:0_20:4] (ion (formula + adduct): [C45H82NO8P+H] 1+)			292.9
CCCCCCC/C=C\CCCCCCCC(=O)OC[C@H](COP(=O)([O-])OCC[N+](C)(C)C)OC(=O)CCCCCCC/C=C\CCCCCCCC [PC 17:1_18:1] (ion (formula + adduct): [C43H82NO8P+H] 1+)	289.2		
CCCCC/C=C\C/C=C\CCCCCCCC(=O)O[C@H](COC(=O)CCCCCCC/C=C\CCCCCCC)COP(=O)([O-])OCC[N+](C)(C)C [PC 17:1_18:2] (ion (formula + adduct): [C43H80NO8P+H] 1+)		285.6	
CCCCC/C=C\C=C/CCCCCCCCC(=O)O[C@H](COC(=O)CCCCCCCCCCCCCCCCC)COP(=O)([O-])OCC[N+](C)(C)C [PC 18:0@_18:2] (ion (formula + adduct): [C44H84NO8P+H] 1+)			292.6

The remaining lines, values ahead:

TIMS collisional cross section (sample type: HeLa) [Å²]	TIMS collisional cross section (sample type: Liver) [Å²]	TIMS collisional cross section (sample type: plasma) [Å²]	SMILES
286.9			CC/C=C\C/C=C\C/C=C\C/C=C\C/C=C\CCCC(=O)O[C@H](COC(=O)CCCCCCCCCCCCCCC)COP(=O)([O-])OCC[N+](C)(C)C [PC 16:0_20:5@] (ion (formula + adduct): [C44H78NO8P+H] 1+)
	285.7		CC/C=C\C/C=C\C/C=C\C/C=C\C/C=C\CCCC(=O)O[C@H](COC(=O)CCCCCCCCCCCCCCC)COP(=O)([O-])OCC[N+](C)(C)C [PC 16:0_20:5] (ion (formula + adduct): [C44H78NO8P+H] 1+)
	292.7		CCCCC/C=C\C/C=C\C/C=C\C/C=C\C/C=C\CCC(=O)O[C@H](COC(=O)CCCCCCCCCCCCCCC)COP(=O)([O-])OCC[N+](C)(C)C [PC 16:0_22:5@] (ion (formula + adduct): [C46H82NO8P+H] 1+)
		293.3	CCCCC/C=C\C/C=C\C/C=C\C/C=C\C/C=C\CCC(=O)O[C@H](COC(=O)CCCCCCCCCCCCCCC)COP(=O)([O-])OCC[N+](C)(C)C [PC 16:0_22:5] (ion (formula + adduct): [C46H82NO8P+H] 1+)
291.8		292	CC/C=C/C/C=C/C/C=C/C/C=C/C/C=C/C/C=C/CCC(=O)O[C@H](COC(=O)CCCCCCCCCCCCCCC)COP(=O)([O-])OCC[N+](C)(C)C [PC 16:0_22:6] (ion (formula + adduct): [C46H80NO8P+H] 1+)
279.2		280.6	CCCCC/C=C\C/C=C\C/C=C\CCCCC(=O)O[C@H](COC(=O)CCCCCCC/C=C\CCCCCC)COP(=O)([O-])OCC[N+](C)(C)C [PC 16:1@_18:3] (ion (formula + adduct): [C42H76NO8P+H] 1+)
		285.8	CCCCC/C=C\C/C=C\C/C=C\C/C=C\CCCC(=O)O[C@H](COC(=O)CCCCCCC/C=C\CCCCCC)COP(=O)([O-])OCC[N+](C)(C)C [PC 16:1@_20:4] (ion (formula + adduct): [C44H78NO8P+H] 1+)
	282.8		CC/C=C\C/C=C\C/C=C\C/C=C\C/C=C\CCCC(=O)O[C@H](COC(=O)CCCCCCC/C=C\CCCCCC)COP(=O)([O-])OCC[N+](C)(C)C [PC 16:1@_20:5] (ion (formula + adduct): [C44H76NO8P+H] 1+)
285.8		286.4	CCCCC/C=C\C/C=C\C/C=C\C/C=C\CCCC(=O)O[C@H](COC(=O)CCCCCCC/C=C\CCCCCC)COP(=O)([O-])OCC[N+](C)(C)C [PC 16:1_20:4] (ion (formula + adduct): [C44H78NO8P+H] 1+)
283.2			CC/C=C\C/C=C\C/C=C\C/C=C\C/C=C\CCCC(=O)O[C@H](COC(=O)CCCCCCC/C=C\CCCCCC)COP(=O)([O-])OCC[N+](C)(C)C [PC 16:1_20:5] (ion (formula + adduct): [C44H76NO8P+H] 1+)
288.4	289		CC/C=C\C/C=C\C/C=C\C/C=C\C/C=C\C/C=C\CCC(=O)O[C@H](COC(=O)CCCCCCC/C=C\CCCCCC)COP(=O)([O-])OCC[N+](C)(C)C [PC 16:1_22:6@] (ion (formula + adduct): [C46H78NO8P+H] 1+)
	288.5		CC/C=C\C/C=C\C/C=C\C/C=C\C/C=C\C/C=C\CCC(=O)O[C@H](COC(=O)CCCCCCC/C=C\CCCCCC)COP(=O)([O-])OCC[N+](C)(C)C [PC 16:1_22:6] (ion (formula + adduct): [C46H78NO8P+H] 1+)
286.4			CC/C=C\C/C=C\C/C=C\C/C=C\C/C=C\CCCC(=O)O[C@H](COC(=O)CCCCCCC/C=C\CCCCCCC)COP(=O)([O-])OCC[N+](C)(C)C [PC 17:1@_20:5] (ion (formula + adduct): [C45H78NO8P+H] 1+)

Reference: the supplement of paper PMC6965134
